Laboratory results as given in PMC12442392, “Identification of a novel ipp gene cluster responsible for 2-isopropylphenol degradation in strain Rhodococcus sp. D-6” (Applied and Environmental Microbiology, 2025).
Substitutions are numbered along the chain they refer to.

Legend:
[1] = tested on: T1, IppA1A2 (IppA1 with reductase component IppA2); assay: Michaelis-Menten kinetics, nonlinear regression; type: biochemical, Rhodococcus sp. D-6; settings: 250 µM NADH, 10 µM FAD, 1.2 µM IppA1, 0.4 µM IppA2; 20 mM Tris-HCl pH 7.4, 30°C; read-out: apparent Km
T1 construct: mixed at molar ratio 3:1 in assay; with 2-isopropylphenol monooxygenase, reductase component (flavin reductase)

IppB [2] = target: T2, IppB (Rhodococcus sp. D-6, UniProt A0AAU7V3K6, E120A, form not given); assay: enzyme activity assay; type: biochemical; settings: standard assay 200 µM substrate, 1.0 µM enzyme, 10 µM Fe^2+; 20 mM Tris-HCl pH 7.4, 30°C; Fe(II)-binding residue
T2 sequence (A0AAU7V3K6 1-190 E120A): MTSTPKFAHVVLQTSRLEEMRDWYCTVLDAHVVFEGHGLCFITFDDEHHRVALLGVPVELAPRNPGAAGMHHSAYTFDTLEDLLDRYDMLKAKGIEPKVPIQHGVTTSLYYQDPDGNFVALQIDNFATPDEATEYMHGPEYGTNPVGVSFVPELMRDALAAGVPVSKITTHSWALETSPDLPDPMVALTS

IppB [3] = target: T3, IppB (Rhodococcus sp. D-6, UniProt A0AAU7V3K6, H72A, form not given); assay: enzyme activity assay; type: biochemical; settings: standard assay 200 µM substrate, 1.0 µM enzyme, 10 µM Fe^2+; 20 mM Tris-HCl pH 7.4, 30°C; Fe(II)-binding residue
T3 sequence (A0AAU7V3K6 1-190 H72A): T2 sequence (A0AAU7V3K6 1-190 E120A) with H72A, A120E

IppB [4] = target: T4, IppB (Rhodococcus sp. D-6, UniProt A0AAU7V3K6, H9A, form not given); assay: enzyme activity assay; type: biochemical; settings: standard assay 200 µM substrate, 1.0 µM enzyme, 10 µM Fe^2+; 20 mM Tris-HCl pH 7.4, 30°C; Fe(II)-binding residue
T4 sequence (A0AAU7V3K6 1-190 H9A): T2 sequence (A0AAU7V3K6 1-190 E120A) with H9A, A120E

IppB [5] = target: T5, IppB (Rhodococcus sp. D-6, UniProt A0AAU7V3K6); assay: Michaelis-Menten kinetics, nonlinear regression; type: biochemical; settings: 1.0 µM IppB, 10 µM Fe^2+; 20 mM Tris-HCl pH 7.4, 30°C; read-out: apparent Km
T5 sequence (A0AAU7V3K6 1-190): T2 sequence (A0AAU7V3K6 1-190 E120A) with A120E

| SMILES | Km [1] | activity lost (no turnover) (IppB [2]) | activity lost (no turnover) (IppB [3]) | activity lost (no turnover) (IppB [4]) | Km (IppB [5]) |
| --- | --- | --- | --- | --- | --- |
| CC(C)c1ccccc1O [2-isopropylphenol] | 60.5 ± 1.27 µM | – | – | – | – |
| CC(C)c1cc(O)ccc1O [2-isopropylhydroquinone] | – | all variants lost their activity against 2-isopropylhydroquinone | all variants lost their activity against 2-isopropylhydroquinone | all variants lost their activity against 2-isopropylhydroquinone | 29.1 ± 1.54 µM |
